From article PMC6906431, “Selective small molecule PARG inhibitor causes replication fork stalling and cancer cell death” (Nature Communications, 2019)
“And” between values parts separate entries of the source, which are not always exact repeats. Equal entries are not always repeated.

Assays:
MDA-MB-231 cells = experiment: Clonogenic survival assay; type: cell-based, human; conditions: 10 µM JA2131 2 h; 3 Gy IR; ~2 weeks
A172 glioblastoma cells = experiment: Sulforhodamine B (SRB) cytotoxicity assay; conditions: Homo sapiens, A 172, 72 h
Experimental: Normalized % viabilities are plotted against log concentration. Error bars show the percent coefficient of variation. […] Mann-Whitney test was used to generate the p-value. The DNA spread assay is the representation of two independently repeated experiments. Source Data are provided as a Source Data file.
Cells were plated in 96-well plates, treated as designated in reduced 5% FBS and fixed with trichloroacetic acid after 72 h, as previously described by[43]. […] Colorimetric or fluorescence analysis was performed in a FlexStation 3, using SoftMax Pro 7.0, Molecular Devices. Normalized graphs were generated with Prism 8 software, non-linear 4-parameter data fitting was performed for IC50 calculation.

[1] = tested on: MDA-MB-231 cells with scrambled shRNA (control); experiment: Cellular PARylation, anti-PAR immunoblot; type: cell-based, human
Experimental: Fig. 6 Selective inhibition of PARG by xanthine derivative JA2131. a Clonogenic survival assays of PC3, MDA-MB-231, and MCF-7 cells treated with PARGi. Cells were treated with either DMSO or 10 µM JA2131 for 2 h, irradiated with 3 Gy (MDA-MB-231 and MCF-7), 7 Gy (PC3) IR and grown for ~2 weeks, then colonies were fixed with methanol and stained with crystal violet. The results of three independent experiments are shown. Error bars = the standard error of the mean (SEM). b dose-response of JA2131 in MDA-MB-231 cells with and without IR. Cells were treated with designated concentrations of JA2131 for 2 h and then either left untreated or exposed to 3 Gy IR and allowed to recover for 1 h before lysis. Total protein was immunoblotted with anti-PAR antibody (upper panel), stripped and reprobed with anti-PCNA as a loading control. c MDA-MB-231 cells with stable scrambled shRNA (WT) or stable PARG shRNA, knockdown (KD), were treated with 5 μM JA2131 for 2 h, lysed and then total lysates were immunoblotted for anti-PAR (upper panel) followed by anti-PARG (upper middle panel), anti-PARP1 (lower middle panel) and anti-actin (bottom panel) antibody. […] Stable cells with scramble shRNA (control) and shPARG (PARG-KD) cells were treated with an increasing concentration of JA2131 for growth inhibitory IC50 determination. The data was normalized against 100% survival at the lowest inhibitor concentration. Error bars show the percent coefficient of variation. Equivalent concentrations of DMSO were used as a negative control. e The cytotoxicity of JA2131 along with PDD, Veliparib and Doxorubicin against MRC-5 cells. Error bars show the percent coefficient of variation. f CETSA for in-cell JA2131 target engagement. Normalized anti-PARG western blot intensities of three independent experiments were fitted as above and the estimated aggregation temperature (Tagg) is shown in the tabulated insert. Source Data are provided as a Source Data file.
Thus, dose-dependent JA2131-induced cellular PARylation with and without IR was investigated. For combined IR treatment, MDA-MB-231 cells were treated with JA2131 for 2 h, followed by […] X-ray and then allowed to recover for an hour before cellular extraction and western blotting analysis.
Using shRNA, next, we generated a stable MDA-MB-231 PARG knockdown (PARG-KD) cell-line (Supplementary Fig. 10). We compared PARGi JA2131-induced PARylation in PARG-KD and control cells. We reasoned that PARG-KD cells would show a reduced response to a selective PARGi as the stable PARG-KD cells would have to adopt a PARG-independent survival mechanism. MDA-MB-231 control cells and PARG-KD cells were treated with JA2131, then total cell lysates were subjected to immunoblotting with anti-PAR antibody, followed by immunodetection for anti-PARG, PARP1 and Actin antibody (Fig. 6c). […] Dose-response curves comparing control and PARG-KD cells further validate the selective action of JA2131 on control cells expressing PARG, but not on the PARG-KD cells (Supplementary Fig. 12).
Cells were grown in 6-well plates and 10 cm dishes, treated with PARGi for 2 h, irradiated and recovered for 1 h before harvesting. Cells were irradiated, ranging from 1 to 10 Gy using RAD SOURCE, RS-2000, Biological System, RadSource.com. Cells were washed with phosphate buffer and saline (PBS) and lysed with buffer containing 50 mM Hepes, pH 7.5, 1% (vol/vol) igepal-C630, 1 mg/ml bacitracin, 1 mM EDTA, 10 mM NaF, 1 mM sodium orthovanadate, 10% (vol/vol) glycerol, 50 mM NaCl, 1 mM PMSF, and Protease Inhibitor Cocktail Set III (EMD Millipore). The detergent-soluble fraction was used for western blotting. Cell fractionation was carried out using the Subcellular Protein Fractionation Kit, (#78840, ThermoFisher) according to the manufacturer’s instruction. Primary antibodies were purchased from the following sources; Actin, GAPDH, γH2AX and Histone-H3 was from Cell Signaling Technology. H2AX and LAMB1 were from Invitrogen/ThermoFisher. […]

[2] = tested on: PARPi resistant SUM149PT cells; experiment: PAR and gH2AX high-content imaging in PARPi-resistant cells; type: cell-based, human; conditions: 10 µM JA2131 2 h; 3Gy IR
Experimental: PARG inhibitors as potential therapeutic option for PARP1 inhibitor resistant cancers.
As PARP1 inhibitors are now widely used in the clinic but frequently resistance is emerging, we evaluated if PARG may be a therapeutic option for patients who become PARP1 inhibitor resistant. We therefore generated PARP1 inhibitor resistant SUM149PT triple negative breast cancer cell-lines through with 100 nM talazoparib for 5 constitutive days and then with 15-50 nM talazoparib until resistant cells grew into clones. The resulting resistant cell clones were propagated and expanded to generate PARP inhibitor resistant SUM149PT derivative cells that no longer responded to PARP1i treatment. We then investigated whether the PARP resistant breast cancer cells would response to the PARG inhibitors. Four PARPi resistant SUM149PT cell clones together with wild type cells were treated with JA2131. PAR accumulation and gH2AX foci formation were analyzed by high content imaging (Fig. S6). Treatment of cells with […]
immu n o fluorescence signals. The PAR accumulation and gH2AX foci formation was very similar […]
PARP1 resistant patients.
Supplementary Fig. 17: PARPi resistant cells respond to JA2131 PARGi. (a) PARGi sensitizes PARP1i resistant breast cancer cells. […]

## Cn1c(=S)c2[nH]c(SCCN3CCOCC3)nc2n(C)c1=O [JA2131]
MDA-MB-231 cells
  clonogenic survival (Exp-1 to Exp-4): 45.2569 and 36.8075 and 26.8698 and 36.3114
A172 glioblastoma cells
  IC50: 55.3 ± 7.9 µM
[1]; 5 μM JA2131 2 h, Ci-DMSO = 1
  anti-PAR western blot band, Normalized: 6.313
[1]; 5 μM JA2131 2 h, ImageJ
  anti-PAR western blot band, Intensity inversion: 0.006671
  anti-PAR western blot band, Neg. substracted: 0.001364
  anti-PAR western blot band, mean int.: 149.9
[1]; 5 μM, 2 h
  PAR accumulation after treatment: a measurable increase in PAR
[1]; JA2131 2 h combined with IR, 1 h recovery
  cellular PARylation: massive increase in cellular PARylation at 100 nM
[1]; JA2131 alone, 2 h
  cellular PARylation: dose-dependent increase in cellular PARylation between 1 μM and 5 μM doses
[2]
  PAR accumulation and gH2AX staining: increased PAR accumulation as well as gH2AX staining
